Non-standard residues stand in square brackets, D forms with d. Residues, ends and D or L forms follow the SMILES beside them. ξ: configuration not given here. ξAla(tetrazol-5-yl) = NC(Cc1nnn[nH]1)C(=O)O; Aib = CC(C)(N)C(=O)O
Experiments:
[1] = Stability test 1: survival rate of peptide in phosphate buffer (pH 7.0) after storage, HPLC; format: physicochemical; conditions: 100 μM peptide
Experimental: The 1.0 mM peptide solutions were then diluted with phosphate buffer to 100 μM. […] The prepared peptide solutions were incubated for one month or 2 months in a 40° C. thermostatic bath to obtain stored samples.
Using the total weight of the aqueous peptide solution and storage vessel as the specimen weight, measurements were recorded as the specimen weights before storage and the specimen weights after storage under different storage conditions. The empty weight of the storage vessel was also measured, and the moisture permeability was determined by the following formula.
After stirring the standard sample and the stored samples with a vortex mixer, each peptide solution was transferred to an HPLC vial (Deactivated Qsert vial by Waters Co.). Reverse-phase HPLC (HPLC system: Prominence by Shimadzu Corp.) was conducted under the conditions shown in Table 3 below for analysis of the peptide solutions, and chromatograms were obtained.
(§1) The peak area value for the peptide in the chromatogram was calculated, and the survival rate (survival rate before correction for water) was calculated using formula (2). The survival rate after correction for water was also calculated from the survival rate before correction for water using formula (3) to take into account the permeability of the container.
Peptide solutions prepared by the same method as [Measuring sample preparation 1] for the peptides synthesized in Example 2 (peptides 13 to 16) were incubated for 2 weeks and 8 weeks in a thermostatic bath at 40° C. to obtain stored samples.
Peptide solutions prepared by the same method as [Measuring sample preparation 1] for the peptides synthesized in Example 2 (peptides 17 to 21) were incubated for 4 weeks in a thermostatic bath at 40° C. to obtain stored samples.
A peptide solution prepared by the same method as [Measuring sample preparation 1] for peptide 22 synthesized in Example 2 was incubated for 1 week and 4 weeks in a thermostatic bath at 40° C. to obtain stored samples.

[2] = Stability test 1, sample preparation 5: survival rate of peptide in Tris buffer (pH 7.0) after storage, HPLC; format: physicochemical; conditions: 100 μM peptide
Experimental: as §1
The prepared peptide solutions were incubated for 4 weeks or 8 weeks in a 40° C. thermostatic bath, and for one week or 2 weeks in a thermostatic bath at 60° C., to obtain stored samples.
The following gradient time was used only for peptide 30.

[3] = 100 μM peptide, Tris buffer pH 7.0, 60° C.
Experimental: The solution was filtered with a Chromatdisk (product of Merck Millipore, Millex-GV, 0.22 μm). The filtrate was diluted to 100 μM with Tris buffer (pH 7.0) and dispensed into a tube (Protein LoBind Tube by Eppendorf Co.). The prepared peptide solutions were incubated for 1 week or 2 weeks in a 60° C. thermostatic bath to obtain stored samples. A simultaneously prepared sample among the peptide solutions that was not stored was used as a standard sample (initial sample). The standard sample and the stored samples were stored at −30° C. until sample analysis.
• Column: XSelect CSH C18 by Waters Co., 5 μm, 4.6×250 mm • Guard column: XSelect CSH C18 by Waters Co., 5 μm, 4.6×20 mm Guard Cartridge • Detection wavelength: 220 nm • Mobile phase A: 0.1% formic acid aqueous solution • Mobile phase B: 0.1% acetonitrile formate solution • Measuring time: 20 minutes • Measuring sample injection rate: 50 μL • Flow rate: 1.0 mL/min • Column temperature: 40° C. • Sample cooler: 25° C. • Mobile phase delivery: The mixing ratio of mobile phase A and mobile phase B was varied as shown in Table 14 for linear concentration gradient control.

[4] = Stability test 1: survival rate of peptide in phosphate buffer (pH 7.0) after storage, HPLC; format: physicochemical; conditions: 100 μM peptide, 0.1% phosphate buffer pH 7.0, head prints 80° C., 8 weeks (Table 4)
[5] = 0.1% phosphate buffer pH 7.0, 40° C., 4 weeks (Table 4)

CC[C@H](C)[C@H](NC(=O)CNC(=O)[C@H](CC(=O)O)NC(=O)[C@H](CO)NC(=O)[C@@H](N)Cc1c[nH]cn1)C(=O)N[C@@H](Cc1ccccc1)C(=O)N[C@H](C(=O)N[C@@H](CC(=O)O)C(=O)N[C@@H](CO)C(=O)N[C@@H](Cc1ccc(O)cc1)C(=O)N[C@@H](CO)C(=O)N[C@@H](CCCNC(=N)N)C(=O)N[C@@H](Cc1ccc(O)cc1)C(=O)N[C@@H](CCCNC(=N)N)C(=O)N[C@@H](CCCCN)C(=O)N[C@@H](CCC(N)=O)C(=O)N[C@@H](CCSC)C(=O)N[C@@H](C)C(=O)N[C@H](C(=O)N[C@@H](CCCCN)C(=O)N[C@@H](CCCCN)C(=O)N[C@@H](Cc1ccc(O)cc1)C(=O)N[C@@H](CC(C)C)C(=O)N[C@@H](C)C(=O)N[C@@H](C)C(=O)N[C@H](C(=O)N[C@@H](CC(C)C)C(N)=O)C(C)C)C(C)C)[C@@H](C)O [Reference Example 1, reference compound]
survival rate after correction for water, 40° C. 4 week [1, 5]: 37.4%
survival rate after correction for water, 40° C. 1 week ([1]; phosphate buffer pH 7.0, 40° C., 1 week (Table 10)): 74.9%
survival rate after correction for water, 40° C. 2 week ([1]; phosphate buffer pH 7.0, 40° C., 2 weeks (Table 6)): 64.3%
survival rate after correction for water, 40° C. 4 week ([1]; phosphate buffer pH 7.0, 40° C., 4 weeks (Table 8)): 23.9%
survival rate after correction for water, 40° C. 4 week ([1]; phosphate buffer pH 7.0, 40° C., 4 weeks (Table 10)): 33.0%
survival rate after correction for water, 40° C. 8 week ([1]; phosphate buffer pH 7.0, 40° C., 8 weeks (Table 6)): 23.7%
survival rate after correction for water, 40° C. 4 week ([2]; Tris buffer pH 7.0, 40° C., 4 weeks (Table 13)): 37.9%
survival rate after correction for water, 40° C. 8 week ([2]; Tris buffer pH 7.0, 40° C., 8 weeks (Table 13)): 15.6%
survival rate after correction for water, 60° C. 1 week ([2]; Tris buffer pH 7.0, 60° C., 1 week (Table 13)): 26.4%
survival rate after correction for water, 60° C. 2 week ([2]; Tris buffer pH 7.0, 60° C., 2 weeks (Table 13)): 14.6%
survival rate after correction for water, 60° C. 1 week preservation ([3]; 1 week): 26.6%
survival rate after correction for water, 60° C. 2 weeks preservation ([3]; 2 weeks): 15.8%
survival rate after correction for water, 80° C. 8 week [4]: 21.3%

CC[C@H](C)[C@H](NC(=O)CNC(=O)C(Cc1nnn[nH]1)NC(=O)[C@H](CO)NC(=O)[C@@H](N)Cc1c[nH]cn1)C(=O)N[C@@H](Cc1ccccc1)C(=O)N[C@@H](C)C(=O)NC(Cc1nnn[nH]1)C(=O)N[C@@H](C)C(=O)N[C@@H](Cc1ccc(O)cc1)C(=O)N[C@@H](CO)C(=O)N[C@@H](CCCNC(=N)N)C(=O)N[C@@H](Cc1ccc(O)cc1)C(=O)N[C@@H](CCCNC(=N)N)C(=O)N[C@@H](CCCCN)C(=O)N[C@@H](CCC(N)=O)C(=O)N[C@@H](CCSC)C(=O)N[C@@H](C)C(=O)N[C@H](C(=O)N[C@@H](CCCCN)C(=O)N[C@@H](CCCCN)C(=O)N[C@@H](Cc1ccc(O)cc1)C(=O)N[C@@H](CC(C)C)C(=O)N[C@@H](C)C(=O)N[C@@H](C)C(=O)N[C@H](C(=O)N[C@@H](CC(C)C)C(N)=O)C(C)C)C(C)C (stereo partly drawn) [Peptide 1, HSTzGI FATzAY SRYRK QMAVK KYLAA VL] (H-HS[ξAla(tetrazol-5-yl)]GIFA[ξAla(tetrazol-5-yl)]AYSRYRKQMAVKKYLAAVL-NH2)
survival rate after correction for water, 40° C. 4 week [1, 5]: 91.1%
survival rate after correction for water, 80° C. 8 week [4]: 81.5%

CC[C@H](C)[C@H](NC(=O)CNC(=O)C(Cc1nnn[nH]1)NC(=O)[C@H](CO)NC(=O)[C@@H](N)Cc1c[nH]cn1)C(=O)N[C@@H](Cc1ccccc1)C(=O)N[C@H](C(=O)NC(Cc1nnn[nH]1)C(=O)NC(C)(C)C(=O)N[C@@H](Cc1ccc(O)cc1)C(=O)NC(C)(C)C(=O)N[C@@H](CCCNC(=N)N)C(=O)N[C@@H](Cc1ccc(O)cc1)C(=O)N[C@@H](CCCNC(=N)N)C(=O)N[C@@H](CCCCN)C(=O)N[C@@H](CCC(N)=O)C(=O)N[C@@H](CCSC)C(=O)N[C@@H](C)C(=O)N[C@H](C(=O)N[C@@H](CCCCN)C(=O)N[C@@H](CCCCN)C(=O)N[C@@H](Cc1ccc(O)cc1)C(=O)N[C@@H](CC(C)C)C(=O)N[C@@H](C)C(=O)N[C@@H](C)C(=O)N[C@H](C(=O)N[C@@H](CC(C)C)C(N)=O)C(C)C)C(C)C)[C@@H](C)O (stereo partly drawn) [Peptide 7, HSTzGI FTTzAiY AiRYRK QMAVK KYLAA VL] (H-HS[ξAla(tetrazol-5-yl)]GIFT[ξAla(tetrazol-5-yl)][Aib]Y[Aib]RYRKQMAVKKYLAAVL-NH2)
survival rate after correction for water, 40° C. 4 week [1, 5]: 91.8%
survival rate after correction for water, 80° C. 8 week [4]: 83.5%

CC[C@H](C)[C@H](NC(=O)CNC(=O)C(Cc1nnn[nH]1)NC(=O)[C@H](CO)NC(=O)[C@@H](N)Cc1c[nH]cn1)C(=O)N[C@@H](Cc1ccccc1)C(=O)N[C@H](C(=O)NC(Cc1nnn[nH]1)C(=O)N[C@@H](CO)C(=O)N[C@@H](Cc1ccc(O)cc1)C(=O)N[C@@H](CO)C(=O)N[C@@H](CCCNC(=N)N)C(=O)N[C@@H](Cc1ccc(O)cc1)C(=O)N[C@@H](CCCNC(=N)N)C(=O)N[C@@H](CCCCN)C(=O)N[C@@H](CCC(N)=O)C(=O)N[C@@H](CCSC)C(=O)N[C@@H](C)C(=O)N[C@H](C(=O)N[C@@H](CCCCN)C(=O)N[C@@H](CCCCN)C(=O)N[C@@H](Cc1ccc(O)cc1)C(=O)N[C@@H](CC(C)C)C(=O)N[C@@H](C)C(N)=O)C(C)C)[C@@H](C)O (stereo partly drawn) [Peptide 8, HSTzGI FTTzSY SRYRK QMAVK KYLA] (H-HS[ξAla(tetrazol-5-yl)]GIFT[ξAla(tetrazol-5-yl)]SYSRYRKQMAVKKYLA-NH2)
survival rate after correction for water, 40° C. 4 week [1, 5]: 95.1%
survival rate after correction for water, 80° C. 8 week [4]: 84.1%

CC[C@H](C)[C@H](NC(=O)CNC(=O)C(Cc1nnn[nH]1)NC(=O)[C@H](CO)NC(=O)[C@@H](N)Cc1c[nH]cn1)C(=O)N[C@@H](Cc1ccccc1)C(=O)N[C@@H](C)C(=O)NC(Cc1nnn[nH]1)C(=O)NC(C)(C)C(=O)N[C@@H](Cc1ccc(O)cc1)C(=O)NC(C)(C)C(=O)N[C@@H](CCCNC(=N)N)C(=O)N[C@@H](Cc1ccc(O)cc1)C(=O)N[C@@H](CCCNC(=N)N)C(=O)N[C@@H](CCCCN)C(=O)N[C@@H](CCC(N)=O)C(=O)N[C@@H](CCSC)C(=O)N[C@@H](C)C(=O)N[C@H](C(=O)N[C@@H](CCCCN)C(=O)N[C@@H](CCCCN)C(=O)N[C@@H](Cc1ccc(O)cc1)C(=O)N[C@@H](CC(C)C)C(=O)N[C@@H](C)C(=O)N[C@@H](C)C(=O)N[C@H](C(=O)N[C@@H](CC(C)C)C(N)=O)C(C)C)C(C)C (stereo partly drawn) [Peptide 6, HSTzGI FATzAiY AiRYRK QMAVK KYLAA VL] (H-HS[ξAla(tetrazol-5-yl)]GIFA[ξAla(tetrazol-5-yl)][Aib]Y[Aib]RYRKQMAVKKYLAAVL-NH2)
survival rate after correction for water, 40° C. 4 week [1, 5]: 94.0%
survival rate after correction for water, 80° C. 8 week [4]: 87.5%

Reference: US20250263459A1, “STABILIZED PACAP PEPTIDE” (SENJU PHARMACEUTICAL CO., LTD., priority 2019, published 2025)
